Measured values: US20240174648A1, “Small Molecule Compound” (Technoderma Medicines Pte Ltd, priority 2019, published 2024)

Tests used:
Format in all cases: biochemical
JAK3 = molecular target: T1, JAK3 (Homo sapiens, UniProt P52333); assay: JAK kinase inhibition assay (EZ Reader, peptide substrate phosphorylation) - JAK3; conditions: JAK3 kinase 1 nM; 8 concentration points, max 10 μM
T1 sequence (P52333 1-1124): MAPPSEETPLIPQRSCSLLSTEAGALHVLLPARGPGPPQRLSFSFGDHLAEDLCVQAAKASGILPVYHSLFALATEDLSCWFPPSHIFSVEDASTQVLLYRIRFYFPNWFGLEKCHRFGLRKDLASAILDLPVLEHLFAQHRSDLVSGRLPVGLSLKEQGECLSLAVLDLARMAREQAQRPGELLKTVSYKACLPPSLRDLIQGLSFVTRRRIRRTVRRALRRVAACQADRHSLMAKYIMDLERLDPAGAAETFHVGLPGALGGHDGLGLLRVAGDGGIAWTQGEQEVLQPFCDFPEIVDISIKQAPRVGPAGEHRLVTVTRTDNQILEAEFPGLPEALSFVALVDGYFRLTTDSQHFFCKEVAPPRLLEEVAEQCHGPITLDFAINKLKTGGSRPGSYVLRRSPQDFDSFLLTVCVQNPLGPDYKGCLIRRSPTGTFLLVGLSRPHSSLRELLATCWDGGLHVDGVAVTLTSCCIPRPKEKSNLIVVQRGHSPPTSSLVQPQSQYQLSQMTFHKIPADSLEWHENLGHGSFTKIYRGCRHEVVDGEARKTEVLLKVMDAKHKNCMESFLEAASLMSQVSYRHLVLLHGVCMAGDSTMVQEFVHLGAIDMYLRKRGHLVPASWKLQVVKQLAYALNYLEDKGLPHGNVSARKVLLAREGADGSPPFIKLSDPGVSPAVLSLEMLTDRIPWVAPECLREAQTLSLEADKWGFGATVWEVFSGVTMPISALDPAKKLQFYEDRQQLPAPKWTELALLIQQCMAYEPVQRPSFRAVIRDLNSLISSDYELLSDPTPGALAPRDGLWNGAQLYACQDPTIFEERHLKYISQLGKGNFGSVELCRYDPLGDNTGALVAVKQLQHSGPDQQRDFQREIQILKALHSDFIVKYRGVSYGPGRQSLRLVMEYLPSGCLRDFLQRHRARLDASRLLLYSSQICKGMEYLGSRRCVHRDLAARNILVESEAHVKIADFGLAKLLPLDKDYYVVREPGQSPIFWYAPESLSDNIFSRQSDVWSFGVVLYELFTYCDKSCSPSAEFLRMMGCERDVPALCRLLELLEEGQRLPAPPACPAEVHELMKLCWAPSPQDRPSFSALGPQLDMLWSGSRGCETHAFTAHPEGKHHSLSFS
Description: (§1) Assay for Identifying Inhibitory Effects of Compounds on JAK Kinases
(§2) Janus kinases (JAK), including JAK1, JAK2, JAK3 and Tyk2, transduce a cytokine-mediated signal through a JAK-STAT pathway. The kinases are 120-140 kDa in size and have 7 determined homology regions: JH1 to JH7. JH1 is an important region for enzymatic activity and has typical characteristics of tyrosine kinases. Phosphorylation of tyrosine leads to a change in the conformation of JAK protein, thereby promoting binding of substrate. The JAK-STAT system includes three main parts: receptors penetrating a cell membrane, Janus kinases binding to the receptors, and signal transducers and activators of transcription (STAT) for transmitting signals to a nucleus and DNA. When cytokines bind to receptors, JAK phosphorylates the receptors and attracts STAT proteins. The STAT proteins are also phosphorylated and combined with one another to form dimers. The dimers enter the nucleus and bind to DNA, thereby leading to gene transcription.
(§3) EZ Reader from PerkinElmer can be used to detect the phosphorylation of polypeptide substrates catalyzed by kinases. The device is based on microfluidic techniques, and can directly detect fluorescently labeled substrates and products. The separation step is achieved by controlling the pressure and electric field strength in the microfluidic chip. In kinase assays, a product conversion ratio is usually controlled to be 20-30%. A biological test is used to identify inhibitory effects of compounds on JAKs.
(§4) Compound powder was dissolved in DMSO, sealed and stored in a freezer under −20° C. The in-house compound Ref1 was used as a positive control for JAK1, JAK2 and Tyk2 tests, and Ref2 was used as a positive control for JAK3 tests.
(§5) S2.8. Assay buffer: 20 mM HEPES buffer, pH 7.4, 10 mM magnesium chloride, 0.01% bovine serum albumin BSA, 0.0005% Tween-20 and 1 mM dithiothreitol solution.
(§6) S2.9. Stop buffer: 180 mM HEPES buffer, 20 mM ethylenediaminetetraacetic acid and 0.2% coating reagent 3.
(§7) S2.10. Separation buffer: 100 mM HEPES buffer, 10 mM ethylenediaminetetraacetic acid, 0.0005% Tween 20, 0.1% coating reagent 3 and 1% dimethyl sulfoxide.
The compound was dissolved in dimethyl sulfoxide and diluted to 10 mM concentration, a certain volume of solution was taken and diluted to 0.6 mM concentration, 10 μL of the 0.6 mM dilution was added to a 384-well microplate, and then was diluted 3-fold with a total of 8 concentration points. […]
Positive control (HPE1): Ref2, final concentration: 10 μM
(§8) Negative control (ZPE): DMSO, final content: 1.6%
(§9) Compounds: maximum final concentration: 10 μM; 3-fold dilution, 8 concentration points and 2 duplicates.
(§10) S4.1. 250 nL of the compound was added to each well of the assay microplate by using ECHO, and centrifuged at 1000 rpm for 1 minute.
(§11) S4.2. 5 μL of the assay buffer was added and agitated for a few seconds to fully dissolve the compound.
(§12) S4.3. 5 μL of 3× substrate solution and 5 μL of 3× kinase solution were added and centrifuged at 800 rpm for 1 minute.
(§13) S4.4. Final concentrations of JAK1, JAK2, JAK3 and Tyk2 kinases in the reaction system were 20 nM, 1 nM, 1 nM and 1 nM respectively.
(§14) S4.5. Incubation at room temperature, where kinases had time differences, and different batches of kinases had time differences.
(§15) S4.6. When 20%-30% of the reaction completed, 15 μL of stop buffer was added to stop the reaction, and centrifuged at 1000 rpm for 2 minutes.
(§16) S4.7. The microplates were placed on EZ Reader for reading.
(§17) S4.8. Readings on EZ Reader were calculated by using a peak height, where product conversion ratio (%)=product/(product+substrate)*100.
(§18) 5. Data Processing: IC50 calculation
(§19) A graphing software Xlfit was used to form a concentration curve of the test compound, and an IC50 value was calculated.
(§20) “A” means “≥10 μM”; “B” means “≥1 μM and <10 μM”; “C” means “≥0.1 μM and <1 μM”; and “D” means “<0.1 μM”.

JAK1 = JAK1 (Homo sapiens, UniProt P23458); assay: JAK kinase inhibition assay (EZ Reader, peptide substrate phosphorylation) - JAK1; conditions: JAK1 kinase 20 nM; 8 concentration points, max 10 μM
How it was run: (§21)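 Microfluidic mobility-shift detection of fluorescent peptide substrate phosphorylation, with JAK1 at 20 nM and JAK2, JAK3 and Tyk2 each at 1 nM final, in 20 mM HEPES pH 7.4, 10 mM MgCl2, 1 mM DTT. Reactions run at room temperature to 20–30% conversion, then EDTA-stopped. Compounds tested at 8 three-fold dilutions from 10 μM top final; IC50 from conversion curves.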

JAK2 = JAK2 (Homo sapiens, UniProt O60674); assay: JAK kinase inhibition assay (EZ Reader, peptide substrate phosphorylation) - JAK2; conditions: JAK2 kinase 1 nM; 8 concentration points, max 10 μM
Description: as §1, §2, §3, §4, §5, §6, §7
The compound was dissolved in dimethyl sulfoxide and diluted to 10 mM concentration, a certain volume of solution was taken and diluted to 0.6 mM concentration, 10 μL of the 0.6 mM dilution was added to a 384-well microplate, and then was diluted 3-fold with a total of 8 concentration points.
Positive control (HPE1): Ref1, final concentration: 10 μM […]
as §8, §9, §10, §11, §12, §13, §14, §15, §16, §17, §18, §19, §20

Tyk2 = Tyk2 (Homo sapiens, UniProt P29597); assay: JAK kinase inhibition assay (EZ Reader, peptide substrate phosphorylation) - Tyk2; conditions: Tyk2 kinase 1 nM; 8 concentration points, max 10 μM
How it was run: as §21

JAK2, sequence (O60674 whole entry): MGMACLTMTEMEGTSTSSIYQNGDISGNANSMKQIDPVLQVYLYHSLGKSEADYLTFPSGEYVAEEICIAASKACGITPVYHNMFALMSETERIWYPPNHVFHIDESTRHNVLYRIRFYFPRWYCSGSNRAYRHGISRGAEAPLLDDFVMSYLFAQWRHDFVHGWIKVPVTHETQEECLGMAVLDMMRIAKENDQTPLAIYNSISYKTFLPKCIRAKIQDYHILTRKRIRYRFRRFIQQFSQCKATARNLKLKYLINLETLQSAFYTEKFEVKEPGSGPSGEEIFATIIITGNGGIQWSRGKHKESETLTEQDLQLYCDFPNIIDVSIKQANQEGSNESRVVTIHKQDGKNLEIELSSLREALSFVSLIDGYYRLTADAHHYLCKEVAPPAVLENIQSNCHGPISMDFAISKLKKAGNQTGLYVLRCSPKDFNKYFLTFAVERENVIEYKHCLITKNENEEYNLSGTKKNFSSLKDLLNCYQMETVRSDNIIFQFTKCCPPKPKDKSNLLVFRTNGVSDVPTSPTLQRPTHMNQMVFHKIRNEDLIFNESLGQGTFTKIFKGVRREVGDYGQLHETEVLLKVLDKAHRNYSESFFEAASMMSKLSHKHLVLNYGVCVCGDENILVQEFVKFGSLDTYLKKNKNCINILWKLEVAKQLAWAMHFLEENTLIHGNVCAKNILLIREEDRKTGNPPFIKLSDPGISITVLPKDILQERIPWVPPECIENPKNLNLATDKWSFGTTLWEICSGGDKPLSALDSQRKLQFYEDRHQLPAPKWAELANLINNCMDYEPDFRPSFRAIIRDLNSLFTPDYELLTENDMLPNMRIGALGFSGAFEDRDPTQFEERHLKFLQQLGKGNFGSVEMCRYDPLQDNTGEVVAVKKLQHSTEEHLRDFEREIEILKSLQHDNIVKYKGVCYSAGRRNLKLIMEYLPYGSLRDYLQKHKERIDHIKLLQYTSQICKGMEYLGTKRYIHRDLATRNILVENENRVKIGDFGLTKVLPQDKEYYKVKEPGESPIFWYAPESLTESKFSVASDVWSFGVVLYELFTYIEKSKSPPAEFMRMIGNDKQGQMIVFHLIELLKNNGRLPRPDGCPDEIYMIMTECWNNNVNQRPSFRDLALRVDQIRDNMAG
Tyk2, sequence (P29597 whole entry): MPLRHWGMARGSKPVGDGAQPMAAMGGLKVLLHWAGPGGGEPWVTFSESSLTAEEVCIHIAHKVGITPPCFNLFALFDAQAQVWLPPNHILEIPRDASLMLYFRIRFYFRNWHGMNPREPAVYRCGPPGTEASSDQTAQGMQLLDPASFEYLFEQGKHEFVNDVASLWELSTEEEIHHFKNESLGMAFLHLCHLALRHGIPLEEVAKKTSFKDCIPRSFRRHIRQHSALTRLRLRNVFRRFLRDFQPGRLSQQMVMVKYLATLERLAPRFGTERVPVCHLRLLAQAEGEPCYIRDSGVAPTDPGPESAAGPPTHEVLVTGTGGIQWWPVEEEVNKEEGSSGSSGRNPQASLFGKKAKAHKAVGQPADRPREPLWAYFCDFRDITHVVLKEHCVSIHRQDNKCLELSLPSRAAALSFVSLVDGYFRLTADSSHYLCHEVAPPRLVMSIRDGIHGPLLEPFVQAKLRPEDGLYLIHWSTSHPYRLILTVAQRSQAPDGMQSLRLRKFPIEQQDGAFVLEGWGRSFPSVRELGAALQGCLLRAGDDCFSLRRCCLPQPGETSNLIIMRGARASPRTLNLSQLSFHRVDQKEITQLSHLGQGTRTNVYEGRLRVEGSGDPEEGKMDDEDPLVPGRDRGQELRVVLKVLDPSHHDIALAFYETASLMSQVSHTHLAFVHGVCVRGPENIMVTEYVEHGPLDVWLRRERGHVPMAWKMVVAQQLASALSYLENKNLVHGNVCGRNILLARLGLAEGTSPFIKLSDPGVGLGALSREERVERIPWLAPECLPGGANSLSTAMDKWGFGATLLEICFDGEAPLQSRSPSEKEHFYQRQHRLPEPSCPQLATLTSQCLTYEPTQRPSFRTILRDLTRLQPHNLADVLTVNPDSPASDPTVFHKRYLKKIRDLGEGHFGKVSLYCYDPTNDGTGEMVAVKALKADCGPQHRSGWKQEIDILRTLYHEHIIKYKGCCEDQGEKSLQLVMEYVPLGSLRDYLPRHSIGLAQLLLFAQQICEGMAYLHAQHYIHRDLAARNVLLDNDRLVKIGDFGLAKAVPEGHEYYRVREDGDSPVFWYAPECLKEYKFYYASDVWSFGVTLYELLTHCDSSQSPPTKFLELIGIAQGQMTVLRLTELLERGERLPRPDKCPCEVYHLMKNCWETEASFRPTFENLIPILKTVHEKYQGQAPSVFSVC
JAK1, sequence (P23458 whole entry): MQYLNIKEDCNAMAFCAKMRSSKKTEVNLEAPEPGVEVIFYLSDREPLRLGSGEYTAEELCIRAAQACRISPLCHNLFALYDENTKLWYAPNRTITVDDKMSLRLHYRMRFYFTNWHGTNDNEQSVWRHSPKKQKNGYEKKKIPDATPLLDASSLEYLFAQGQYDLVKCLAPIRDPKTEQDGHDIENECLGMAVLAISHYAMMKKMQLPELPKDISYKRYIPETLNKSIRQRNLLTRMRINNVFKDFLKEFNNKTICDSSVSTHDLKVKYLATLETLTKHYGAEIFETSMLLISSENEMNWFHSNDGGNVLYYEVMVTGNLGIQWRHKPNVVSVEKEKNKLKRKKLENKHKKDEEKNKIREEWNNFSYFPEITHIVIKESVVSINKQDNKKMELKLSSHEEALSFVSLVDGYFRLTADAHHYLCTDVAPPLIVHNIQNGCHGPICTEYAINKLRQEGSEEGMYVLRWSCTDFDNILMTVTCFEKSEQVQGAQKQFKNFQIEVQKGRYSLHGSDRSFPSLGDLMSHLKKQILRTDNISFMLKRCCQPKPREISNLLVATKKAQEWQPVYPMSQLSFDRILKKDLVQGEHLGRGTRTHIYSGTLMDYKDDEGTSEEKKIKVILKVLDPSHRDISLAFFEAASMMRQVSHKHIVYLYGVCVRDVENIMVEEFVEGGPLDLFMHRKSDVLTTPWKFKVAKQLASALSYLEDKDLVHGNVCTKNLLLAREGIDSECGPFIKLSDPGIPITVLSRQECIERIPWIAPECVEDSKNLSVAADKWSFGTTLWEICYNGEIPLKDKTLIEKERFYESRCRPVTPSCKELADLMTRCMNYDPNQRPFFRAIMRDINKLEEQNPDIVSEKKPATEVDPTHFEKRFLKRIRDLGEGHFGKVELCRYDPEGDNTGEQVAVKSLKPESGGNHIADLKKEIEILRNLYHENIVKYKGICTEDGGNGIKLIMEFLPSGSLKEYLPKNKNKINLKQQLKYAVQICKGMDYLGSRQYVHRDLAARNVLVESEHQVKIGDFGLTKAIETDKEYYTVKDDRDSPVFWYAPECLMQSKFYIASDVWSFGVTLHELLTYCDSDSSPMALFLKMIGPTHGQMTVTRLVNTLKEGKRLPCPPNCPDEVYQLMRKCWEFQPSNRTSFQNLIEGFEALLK

IC50 (JAK3) [µM]	IC50 (JAK1) [µM]	IC50 (JAK2) [µM]	IC50 (Tyk2) [µM]	SMILES
0.1 to 1	< 0.1	< 0.1	< 0.1	Cn1cc(Nc2nccc(-c3ccc(NC(=O)C4CC4(F)F)nc3)n2)cn1 (stereo not drawn) [TDM-180822, 2,2-difluoro-N-(5-(2-((1-methyl-1H-pyrazol-4-yl)amino)pyrimidin-4-yl)pyridin-2-yl)cyclopropane-1-carboxamide]
1 to 10	0.1 to 1	0.1 to 1	0.1 to 1	Cn1cc(Nc2nccc(-c3ccc(C(=O)NCC(F)(F)F)cc3)n2)cn1 [TDM-180748, 4-(2-((1-methyl-1H-pyrazol-4-yl)amino)pyrimidin-4-yl)-N-(2,2,2-trifluoroethyl)benzamide]
≥ 10	0.1 to 1	1 to 10	0.1 to 1	Cn1cc(Nc2nccc(-c3ccc(CNCC(F)(F)F)cc3)n2)cn1 [TDM-180760, N-(1-methyl-1H-pyrazol-4-yl)-4-(4-(((2,2,2-trifluoroethyl)amino)methyl)phenyl)pyrimidin-2-amine]
< 0.1	< 0.1	< 0.1	< 0.1	Cn1cc(Nc2nccc(-c3ccc(NS(=O)(=O)Cc4ccccc4)cc3)n2)cn1 [TDM-180820, N-(4-(2-((1-methyl-1H-pyrazol-4-yl)amino)pyrimidin-4-yl)phenyl)-1-phenylmethanesulfonamide]
1 to 10	0.1 to 1	0.1 to 1	0.1 to 1	Cn1cc(Nc2nccc(-c3ccc(NS(=O)(=O)C4CC4)cc3)n2)cn1 [TDM-180767, N-(4-(2-((1-methyl-1H-pyrazol-4-yl)amino)pyrimidin-4-yl)phenyl)cyclopropanesulfo]
1 to 10	0.1 to 1	0.1 to 1	0.1 to 1	C=CCS(=O)(=O)Nc1ccc(-c2ccnc(Nc3cnn(C)c3)n2)cc1 [TDM-180844, N-(4-(2-((1-methyl-1H-pyrazol-4-yl)amino)pyrimidin-4-yl)phenyl)prop-2-ene-1-sulfonamide]
≥ 10	0.1 to 1	0.1 to 1	0.1 to 1	Cn1cc(Nc2nccc(-c3ccc(NC(=O)C4(C)CC4)cc3)n2)cn1 [TDM-180802, 1-methyl-N-(4-(2-((1-methyl-1H-pyrazol-4-yl)amino)pyrimidin-4-yl)phenyl)cyclopropane-1-carboxamide]
1 to 10	0.1 to 1	0.1 to 1	0.1 to 1	CCS(=O)(=O)Nc1ccc(-c2ccnc(Nc3cnn(C)c3)n2)cc1 [TDM-180768, N-(4-(2-((1-methyl-1H-pyrazol-4-yl)amino)pyrimidin-4-yl)phenyl)ethanesulfonamide]
≥ 10	10	1 to 10	1 to 10	Cn1cc(Nc2nccc(-c3ccc(-n4nccc4C4CC4)cc3)n2)cn1 [TDM-180763, 4-(4-(5-cyclopropyl-1H-pyrazol-1-yl)phenyl)-N-(1-methyl-1H-pyrazol-4-yl)pyrimidin-2-amine]
